Like-named read-outs stand apart in the source and are kept apart here.
Assays:
[1] = Olanzapine-related changes (body weight, adipose tissue, serum chemistry) in female cynomolgus monkeys; type: in vivo
Protocol: Clinical observations and weight gain were assessed over a 28-day treatment period. […] Beginning two weeks prior to the study, monkeys were given ad libitum access to a highly palatable, high caloric diet. On the day prior to the start of treatment, monkeys were weighed and assigned to groups using a randomized block design based on body weight (BW); average BW across the 3 groups was 3.1+0.08 kg on the day of randomization. Also, baseline whole body CT scans were taken on the day prior to initiation of treatments. […] A second CT scan was conducted on day 29.

[2] = system: ghrelin; conditions: known in literature; cited from earlier work
[3] = Olanzapine-related weight gain in female rats; type: in vivo
Excerpt: The rats were assigned to treatment groups using a random block design based on initial body weight.

[4] = patients; Taylor et al., Acta Psychiatr Scand. 2001; cited from earlier work
[5] = system: ghrelin; assay: Circulating ghrelin levels in conscious, unrestrained rats; type: in vivo; conditions: 10 mg/kg PO, two hours post administration
Protocol: To determine whether Compound1 and naltrexone have any effect on circulating levels of ghrelin, conscious, unrestrained rats (low stress model) were administered Compound 1 and nalrextone (10 mg/kg, PO). Blood samples were collected and analyzed by bioanalytical for circulating levels of ghrelin at 0, 15, 30, 60, and 120 minutes most administration.

[6] = co-administration of Compound 1 0.4 mg/kg IM with olanzapine, serum, Day 28
[7] = olanzapine with Compound 1 0.4 mg/kg IM once daily, 28 days
[8] = olanzapine only, compared to the vehicle group

With `NC(=O)c1ccc2c(c1O)[C@]13CCN(CC4CC4)[C@H](C2)[C@]1(O)CCC(=O)C3` [Compound 1] as the molecule, how does the “effect on olanzapine-induced elevation in LDL concentrations” value [1, 6] read?
The value was “prevented”.

And the “effect on olanzapine-induced elevation in TGs” value [1, 6]?
The value was “prevented”.

And the “effect on OLZ-induced changes (weight, adipose tissue accretion, TGs and LDLs)” value ([1]; co-administration of Compound 1 with olanzapine, 28 days)?
The value was “mitigated”.

What about the “average body weight gain” value [1, 7] of the same molecule?
Its value is 0.08 kg.

And the “average body weight gain, % of Day 0 BW” value [1, 7]?
Its value is 2.6%.

With `Cc1cc2c(s1)Nc1ccccc1N=C2N1CCN(C)CC1` [olanzapine, 2-methyl-4-(4-methyl-1-piperazinyl)-10H-thieno[2,3-b][1,5]benzodiazepine] as the molecule, how does the circulating ghrelin levels [2] read?
The circulating ghrelin levels was “increases circulating ghrelin levels”.

What about the “weight gain (body weight)” value ([3]; olanzapine alone 1 mg/kg PO twice daily, 10 consecutive days, vs vehicle control) of the same molecule?
Its value is “greater increases in weight gain”.

And the “adipose tissue gain (CT scan)” value [1, 8]?
The value was “gained relatively more adipose tissue compared to the vehicle group”.

What about the “location of adipose tissue deposition (CT scan)” value [1, 8] of the same molecule?
The value was “more abdominal fat accretion”.

With `O=C1CCc2ccc(OCCCCN3CCN(c4cccc(Cl)c4Cl)CC3)cc2N1` [aripiprazole, 7-[4-[4-(2,3-dichlorophenyl)piperazin-1-yl]butoxy]-3,4-dihydro-1H-quinolin-2-one] as the molecule, how does the “weight gain associated with atypical antipsychotic” value (from here on “weight gain associated”) [4] read?
The value was “less”.

Which “weight gain associated” value [4] does the source give for `OCCOCCN1CCN(C2=Nc3ccccc3Sc3ccccc32)CC1` [quetiapine, 2-(2-(4-dibenzo[b,f][1,4]thiazepine-11-yl-1-piperazinyl)ethoxy)ethanol] here?
The value was “greatest”.

What does the source list for `O=C1CC[C@@]2(O)[C@H]3Cc4ccc(O)c5c4[C@@]2(CCN3CC2CC2)[C@H]1O5` [naltrexone]?
effect on olanzapine-induced weight gain ([3]; 2 mg/kg SC concurrent with afternoon olanzapine (1 mg/kg PO twice daily), 10 days): did not affect olanzapine-induced weight gain; circulating ghrelin levels [5]: significantly greater circulating ghrelin levels than Compound 1

For `O=C1Cc2cc(CCN3CCN(c4nsc5ccccc45)CC3)c(Cl)cc2N1` [ziprasidone, 5-[2-[4-(1,2-benzisothiazol-3-yl)-1-piperazinyl]ethyl]-6-chloro-1,3-dihydro-2H-indol-2-one], which “weight gain associated” value [4] is on record?
Its value is “less”.
